EC50 data for 3 compounds are collected here from patent US12565494B2, “Inhibitors of human respiratory syncytial virus and metapneumovirus” (priority 2022, dated 2026).

One may read the EC50 as the concentration at which the effect is half-maximal.

In one assay the test system is hMPV-GFP virus. The assay is described as follows: microbe, parasite or virus in culture. Format: cell-based, Human Metapneumovirus. The note with it: VERO cells, hMPV-GFP MOI=1.25, 48 hrs, GFP-expressing cells counted. The method in brief: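 VERO cells infected with GFP-expressing hMPV at MOI 1.25 and exposed to compound in 10-point 3-fold dilutions (typical final 40,300–2 nM) for 48 h at 37 °C. GFP-positive cells counted by imaging; same-well CellTiter-Glo for cytotoxicity. IC50 and CC50 from 4-parameter logistic fits.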

The next assay concerns RSV-A2-GFP virus. Briefly: microbe, parasite or virus in culture. Format: cell-based, Human Respiratory Syncytial Virus. The note with it: Calu-1 cells, RSV-A2-GFP MOI=1.2, 96 hrs, GFP-expressing cells counted. The method in brief: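 Assay-ready frozen Calu-1 cells (20,000 cells/mL) were infected with RSV-A2-GFP at MOI 1.2 in DMEM with 2% FBS and exposed to a 10-point 3-fold compound dilution for 96 h at 37 °C. GFP-positive cells were counted by imaging, with same-well CellTiter-Glo for cytotoxicity. IC50 and CC50 came from 4-parameter logistic fits.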

[1] abbreviates: Vero, 48 h, read-out: RSV EC50, Table II Summary of Activities for hMPV.
[2] abbreviates: human respiratory syncytial virus, Calu-1, 96 h, read-out: RSV EC50, Table I Summary of Activities for RSV.

Structures are written as SMILES. Like-named read-outs stand apart in the source and are kept apart here.

`Cn1nc(-c2ncco2)cc1C(=O)N1C[C@@H]2[C@H](C1)[C@H]2Oc1cc(C(C)(C)N)cc(N2CCC(C)(C)CC2)n1` [Example 65, ((1R,5S,6s)-6-((4-(2-aminopropan-2-yl)-6-(4,4-dimethylpiperidin-1-yl)pyridin-2-yl)oxy)-3-azabicyclo[3.1.0]hexan-3-yl)(1-methyl-3-(oxazol-2-yl)-1H-pyrazol-5-yl)methanone]: the concentration for a half-maximal effect (EC50) in the assay with hMPV-GFP virus (setting [1]) is more than 100 nM; with RSV-A2-GFP virus (setting [2]), less than 10 nM.

Take `Cn1nc(-n2cccn2)cc1C(=O)N1C[C@@H]2[C@H](C1)[C@H]2Oc1cc(C(C)(C)N)cc(-c2ccc(F)cc2)n1` [Example 67, ((1R,5S,6s)-6-((4-(2-aminopropan-2-yl)-6-(4-fluorophenyl)pyridin-2-yl)oxy)-3-azabicyclo[3.1.0]hexan-3-yl)(1′-methyl-1′H-[1,3′-bipyrazol]-5′-yl)methanone]: the EC50 was more than 100 nM in the assay on hMPV-GFP virus (setting [1]) and less than 10 nM in the assay on RSV-A2-GFP virus (setting [2]).

With `Cn1nc(-n2nccn2)cc1C(=O)N1C[C@@H]2[C@H](C1)[C@H]2Oc1cc(C(C)(C)N)cc(-c2ccc(F)cc2)n1` [Example 68, ((1R,5S,6s)-6-((4-(2-aminopropan-2-yl)-6-(4-fluorophenyl)pyridin-2-yl)oxy)-3-azabicyclo[3.1.0]hexan-3-yl)(1-methyl-3-(2H-1,2,3-triazol-2-yl)-1H-pyrazol-5-yl)methanone], the EC50 was 10 to 100 nM with hMPV-GFP virus (Table II Summary of Activities for hMPV, read-out: RSV EC50) and less than 10 nM with RSV-A2-GFP virus (Table I Summary of Activities for RSV, read-out: RSV EC50).
